Experimental data from the supplement of paper PMC10307832.

Assays:
Test in all cases: relative viability (nuclei count vs DMSO), 5 days (fraction); higher = more cells survive
[1] = test system: HOP-62
Procedure, shortened: (§1)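 Relative viability divides the nuclei count in treated wells by that in vehicle wells. Lung cancer cell lines were seeded in 1536-well plates, dosed by pin tool the next day, and fixed and stained after 5 days in one step with final 0.05% Triton X-100, 1% formaldehyde and 1 ug/ml Hoechst. Dosing was a single drug or a fixed anchor-drug dose plus five library-drug doses (not always all listed) in √10 steps, and values are medians of duplicate plates imaged at 4×.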

[2] = test system: NCI-H1299
Procedure, shortened: as §1

[3] = test system: A549
Procedure, shortened: as §1

[4] = test system: UMC-11
Procedure, shortened: as §1

[5] = test system: Calu-6
Procedure, shortened: as §1

[6] = test system: IA-LM
Procedure, shortened: as §1

[7] = test system: EBC-1
Procedure, shortened: as §1

[8] = test system: NCI-H23
Procedure, shortened: as §1

[9] = test system: ABC-1
Procedure, shortened: as §1

[10] = test system: NCI-H2009
Procedure, shortened: as §1

[11] = test system: NCI-H322M
Procedure, shortened: as §1

[12] = test system: NCI-H1703
Procedure, shortened: as §1

[13] = test system: NCI-H1355
Procedure, shortened: as §1

COCC1(CO)C(=O)C2CCN1CC2 (stereo not drawn) [PRIMA-1MET] + C[C@@H](Oc1cc(-c2cnn(C3CCNCC3)c2)cnc1N)c1c(Cl)ccc(F)c1Cl [Crizotinib] (partner 1 µM)
relative viability ([1]; first compound 0.2 µM): 0.999 | relative viability ([1]; first compound 0.6325 µM): 0.76 | relative viability ([1]; first compound 2 µM): 0.666 | relative viability ([1]; first compound 6.325 µM): 0.969 | relative viability ([1]; first compound 20 µM): 0.768 | relative viability ([2]; first compound 0.2 µM): 0.988 | relative viability ([2]; first compound 0.6325 µM): 0.728 | relative viability ([2]; first compound 2 µM): 1 | relative viability ([2]; first compound 6.325 µM): 0.978 | relative viability ([2]; first compound 20 µM): 0.955 | relative viability ([3]; first compound 0.2 µM): 0.961 | relative viability ([3]; first compound 0.6325 µM): 0.577 | relative viability ([3]; first compound 2 µM): 0.813 | relative viability ([3]; first compound 6.325 µM): 0.817 | relative viability ([3]; first compound 20 µM): 0.746 | relative viability ([4]; first compound 0.2 µM): 0.536 | relative viability ([4]; first compound 0.6325 µM): 0.643 | relative viability ([4]; first compound 2 µM): 0.607 | relative viability ([4]; first compound 6.325 µM): 0.726 | relative viability ([4]; first compound 20 µM): 0.586 | relative viability ([5]; first compound 0.2 µM): 0.795 | relative viability ([5]; first compound 0.6325 µM): 0.901 | relative viability ([5]; first compound 2 µM): 0.825 | relative viability ([5]; first compound 6.325 µM): 0.886 | relative viability ([5]; first compound 20 µM): 0.627 | relative viability ([6]; first compound 0.2 µM): 0.856 | relative viability ([6]; first compound 0.6325 µM): 0.868 | relative viability ([6]; first compound 2 µM): 0.955 | relative viability ([6]; first compound 6.325 µM): 0.851 | relative viability ([6]; first compound 20 µM): 0.838 | relative viability ([7]; first compound 0.2 µM): 0.19 | relative viability ([7]; first compound 0.6325 µM): 0.174 | relative viability ([7]; first compound 2 µM): 0.197 | relative viability ([7]; first compound 6.325 µM): 0.192 | relative viability ([7]; first compound 20 µM): 0.212 | relative viability ([8]; first compound 0.2 µM): 0.599 | relative viability ([8]; first compound 0.6325 µM): 0.471 | relative viability ([8]; first compound 2 µM): 0.48 | relative viability ([8]; first compound 6.325 µM): 0.406 | relative viability ([8]; first compound 20 µM): 0.104 | relative viability ([9]; first compound 0.2 µM): 1.39 | relative viability ([9]; first compound 0.6325 µM): 1.22 | relative viability ([9]; first compound 2 µM): 0.945 | relative viability ([9]; first compound 6.325 µM): 0.908 | relative viability ([9]; first compound 20 µM): 0.555 | relative viability ([10]; first compound 0.2 µM): 0.99 | relative viability ([10]; first compound 0.6325 µM): 0.889 | relative viability ([10]; first compound 2 µM): 1.09 | relative viability ([10]; first compound 6.325 µM): 1.05 | relative viability ([10]; first compound 20 µM): 0.295 | relative viability ([11]; first compound 0.2 µM): 0.75 | relative viability ([11]; first compound 6.325 µM): 0.991 | relative viability ([11]; first compound 20 µM): 0.82 | relative viability ([12]; first compound 0.2 µM): 0.749 | relative viability ([12]; first compound 0.6325 µM): 0.861 | relative viability ([12]; first compound 2 µM): 0.784 | relative viability ([12]; first compound 6.325 µM): 0.377 | relative viability ([12]; first compound 20 µM): 0.0587 | relative viability ([13]; first compound 0.2 µM): 1.2 | relative viability ([13]; first compound 0.6325 µM): 1.02 | relative viability ([13]; first compound 2 µM): 0.897 | relative viability ([13]; first compound 6.325 µM): 1.05 | relative viability ([13]; first compound 20 µM): 1.03
